Source: patent US20250230147A1, “LACTAMS AS CBL-B INHIBITORS” (Genentech, Inc., priority 2021, published 2025)
pIC50: −log10 of the molar value.

Experiments:
Cbl-b = Cbl-b (Homo sapiens (Human), UniProt Q13191); assay: Cbl-b LCK Ub TR-FRET assay (Cbl-b Lck HTRF); format: biochemical
In short: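 TR-FRET (340 nm excitation, 615/665 nm emission) read after adding HA-ubiquitin–UBE2D2 thioester, anti-HA-D2 and streptavidin-Eu. Beforehand, compounds incubated 60 min with biotinylated Cbl-b, then 90 min with His-LCK and ATP (1 mM in 2× mix); IC50 from 10 concentrations, DMSO high and no-LCK low controls.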

c-Cbl = c-Cbl (Homo sapiens (Human), UniProt P22681); assay: C-Cbl LCK Ub TR-FRET assay (c-cbl Lck HTRF); format: biochemical; details: for (fold-selectivity): C-cbl Lck HTRF IC50 relative to Cbl-b Lck HTRF IC50
In short: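 Detection reagents added, brief spin, 20 min RT. IC50 fit normalized to no-LCK (low) and DMSO (high) controls.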

Cbl-b, sequence (Q13191 40-426): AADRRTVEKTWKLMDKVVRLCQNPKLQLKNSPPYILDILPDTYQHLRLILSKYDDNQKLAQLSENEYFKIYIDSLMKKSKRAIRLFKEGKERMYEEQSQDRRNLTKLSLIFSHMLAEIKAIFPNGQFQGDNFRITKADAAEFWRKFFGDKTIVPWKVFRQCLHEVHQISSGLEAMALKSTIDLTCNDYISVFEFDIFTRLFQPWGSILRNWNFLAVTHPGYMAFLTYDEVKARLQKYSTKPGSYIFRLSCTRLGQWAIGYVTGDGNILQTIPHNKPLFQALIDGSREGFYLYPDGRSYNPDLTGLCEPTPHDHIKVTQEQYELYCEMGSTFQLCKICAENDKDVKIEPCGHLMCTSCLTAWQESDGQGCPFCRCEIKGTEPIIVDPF
c-Cbl, sequence (P22681 47-435): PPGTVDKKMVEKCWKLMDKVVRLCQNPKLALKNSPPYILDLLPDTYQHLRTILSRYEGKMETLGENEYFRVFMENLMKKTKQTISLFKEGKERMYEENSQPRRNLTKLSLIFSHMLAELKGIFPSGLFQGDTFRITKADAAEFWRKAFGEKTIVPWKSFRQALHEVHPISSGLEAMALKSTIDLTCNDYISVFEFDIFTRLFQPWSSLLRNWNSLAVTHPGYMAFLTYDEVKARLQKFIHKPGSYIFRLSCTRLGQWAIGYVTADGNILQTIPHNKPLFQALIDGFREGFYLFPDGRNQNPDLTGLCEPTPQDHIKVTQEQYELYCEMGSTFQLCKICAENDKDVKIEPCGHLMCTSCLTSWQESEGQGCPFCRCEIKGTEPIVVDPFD

Row | Structure (SMILES) | pIC50 (Cbl-b) | pIC50 (c-Cbl) | (fold-selectivity) (c-Cbl)
1 | CO[C@H]1CCCN(Cc2cc3c(c(C(F)(F)F)c2)CN(c2cccc(C4(Cc5nncn5C)CC(F)(F)C4)c2)C3=O)C1 [Compound 443, (S)-2-(3-(3,3-difluoro-1-((4-methyl-4H-1,2,4-triazol-3-yl)methyl)cyclobutyl)phenyl)-6-((3-methoxypiperidin-1-yl)methyl)-4-(trifluoromethyl)isoindolin-1-one] | 7.23 | 6.74 | (2.8x)
2 | CC(C)CNCc1cc2c(c(C(F)(F)F)c1)CN(c1cccc(C3([C@H](F)c4nncn4C)CC(F)(F)C3)c1)C2=O [Compound 452, (S)-2-(3-(3,3-difluoro-1-(fluoro(4-methyl-4H-1,2,4-triazol-3-yl)methyl)cyclobutyl)phenyl)-6-((isobutylamino)methyl)-4-(trifluoromethyl)isoindolin-1-one] | 7.92 | 8.04 | (0.78x)
3 | CC(C)[C@@H]1CN(Cc2cc3c(c(C(F)(F)F)c2)CN(c2cccc(C4([C@@H](F)c5nncn5C)COC4)c2)C3=O)CCN1C [Compound 406, 2-(3-(3-((R)-fluoro(4-methyl-4H-1,2,4-triazol-3-yl)methyl)oxetan-3-yl)phenyl)-6-(((R)-3-isopropyl-4-methylpiperazin-1-yl)methyl)-4-(trifluoromethyl)isoindolin-1-one] | 7.12 | 7.08 | (1.1x)
4 | CC(C)[C@H]1CNCCN1Cc1cc2c(c(C(F)(F)F)c1)CN(c1cccc(C3([C@@H](F)c4nncn4C)CCC3)c1)C2=O [Compound 216, 2-(3-(1-((R)-fluoro(4-methyl-4H-1,2,4-triazol-3-yl)methyl)cyclobutyl)phenyl)-6-(((S)-2-isopropylpiperazin-1-yl)methyl)-4-(trifluoromethyl)isoindolin-1-one] | 8.10 | 8.32 | 0.60x
5 | CCn1cnnc1[C@@H](F)C1(c2cccc(N3Cc4c(cccc4C(F)(F)F)C3=O)c2)COC1 [Compound 271, (S)-2-(3-(3-((4-ethyl-4H-1,2,4-triazol-3-yl)fluoromethyl)oxetan-3-yl)phenyl)-4-(trifluoromethyl)isoindolin-1-one] | 5.80 | 5.72 | (1.2x)
6 | CC[C@@H]1CCC[C@H](c2cc3c(c(C(F)(F)F)c2)CN(c2cccc(C4(Cc5nncn5C)CC(F)(F)C4)c2)C3=O)N1 [Compound 274, 2-(3-(3,3-difluoro-1-((4-methyl-4H-1,2,4-triazol-3-yl)methyl)cyclobutyl)phenyl)-6-((2R,6R)-6-ethylpiperidin-2-yl)-4-(trifluoromethyl)isoindolin-1-one] | 6.85 | 6.66 | (1.6x)
7 | Cn1cnnc1CC1(c2cc(NC3CCCC3)cc(N3Cc4c(cc(CNC5(C)CCC5)cc4C(F)(F)F)C3=O)c2)CC(F)(F)C1 [Compound 477, 2-(3-(cyclopentylamino)-5-(3,3-difluoro-1-((4-methyl-4H-1,2,4-triazol-3-yl)methyl)cyclobutyl)phenyl)-6-(((1-methylcyclobutyl)amino)methyl)-4-(trifluoromethyl)isoindolin-1-one] | 7.44 | 6.96 | (3.4x)
8 | CC(C)[C@H]1CN(C)CCN1Cc1cc2c(c(C(F)(F)F)c1)CN(c1cccc(C3(Cc4nncn4C)CCC3)c1)C2=O [Compound 410, (S)-6-((2-isopropyl-4-methylpiperazin-1-yl)methyl)-2-(3-(1-((4-methyl-4H-1,2,4-triazol-3-yl)methyl)cyclobutyl)phenyl)-4-(trifluoromethyl)isoindolin-1-one] | 7.92 | 7.11 | (0.62x)
